From article PMC9098913, “In vitro reconstitution of Escherichia coli divisome activation” (Nature Communications, 2022)
Where two headings read alike, the source gives them in different places.

Legend:
[1] = test system: FtsZ; conditions: for FtsZ autocorrelation T: mean; for Autocorrelation Decay Tau: Fig. S2i, + FtsN;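 for FtsZ autocorrelation T: FtsZ filament patterns imaged by time-lapse TIRF microscopy, one frame per 2 s, with ATP and GTP, Pearson correlation of first frame versus later frames, monoexponential fit, slower decay means persistent structures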;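 for FtsZ autocorrelation: FtsZ filament patterns imaged by time-lapse TIRF microscopy, one frame per 2 s, with ATP and GTP, Pearson correlation of first frame versus later frames, monoexponential fit, slower decay means persistent structures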;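 for PCC FtsA/FtsZ, mean of experiment (head 'Fig.1e PCC'; n and values fit Fig. 1f PCCdiff): pearson correlation of FtsA and FtsZ channels in dual-colour TIRF movies after subtracting consecutive frames to isolate growing filament ends, one frame per 2 s, ATP and GTP present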;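 for PCCdiff FtsA/FtsZ: pearson correlation of FtsA and FtsZ channels in dual-colour TIRF movies after subtracting consecutive frames to isolate growing filament ends, one frame per 2 s, ATP and GTP present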
Description: To measure reorganization dynamics of FtsZ filaments, we used a temporal correlation analysis based on the Image CorrelationJ 1o plugin. We quantified the PCC between the first frame to subsequent frames with increasing time lag (∆t). The decrease in the PCC was plotted against ∆t to obtain autocorrelation curves. Slower decay indicates more persistent structures. The rates of decay were extracted by fitting monoexponential decay to the autocorrelation curves y=a⋅e^−b⋅t+k , where a is the starting point, b is the decay rate and k is the final offset. The half time of the monoexponential decay was calculated via the decay rate.

[2] = Membrane binding of FtsA by QCM-D
Description: To quantify the intrinsic membrane-affinity of the two versions of FtsA, we used Quartz Crystal Microbalance with Dissipation (QCM-D) and measured the hydrated mass of adsorbed protein on a membrane surface.
QCM-D experiments were performed with the QSense Analyzer from Biolin Scientific, equipped with silica-coated sensor (QSX 303). The sensors were cleaned for 10 s in a Zepto plasma cleaner, mounted in the QCM-D chambers and the acquisition of the experiment was first performed in the reaction buffer (50 mM Tris-HCl [pH 7.4], 150 mM KCl and 5 mM MgCl2). The supported lipid membrane was formed by rupturing 0.5 mM small unilamellar vesicles (SUVs) in the presence of MgCl2. The lipids used were 1,2-dioleoyl-sn-glycero-3-phosphocholine (DOPC) and 1,2-dioleoyl-sn-glycero-3-phospho-(1′-rac-glycerol) (DOPG) at a ratio of 67:33 mol%. After bilayer formations, the reaction buffer supplemented with 2 mM ATP, 2 mM GTP and 1 mM DTT was injected and the signal was recorded until a stable equilibrium was reached. Subsequently, increasing concentrations of FtsA were injected in the QCM-D chamber and changes in frequency and dissipation were monitored in real-time. The flow rate used in all experiments was 25 µl min^−1, and the temperature was set to 25 °C. To estimate the membrane-binding affinity, we extracted the frequency changes of the 5th acoustic harmonic for different FtsA concentrations and fitted a Hill equation y=S+(E−S)⋅(x^n/k^n+x^n) , where S is the starting point, E the end point, n is the Hill coefficient and k the dissociation constant. The measured binding affinity is an upper estimate, because QCM-D accounts not only on the dry molecular mass, but also on the hydration shell of the molecular assembly.

[3] = test system: FtsA/Z co-filaments; assay type: biochemical, E. coli; conditions: Fig. 2g, mean
Description: By fitting an exponential function to the increase of the PCC with time, we were able to extract the corresponding recruitment rate (Fig. 2f, g).
Subsequently, the chamber was washed 6x with reaction buffer, to remove bulk peptide. To visualize colocalization with either FtsZ or FtsA, either a mix of FtsA and Alexa488-FtsZ or Cy3-FtsA and FtsZ was added. […] The time-lapse videos were recorded for 10 min after the addition, with one frame per 2 s.

[4] = test system: FtsZ;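 for FtsZ autocorrelation: FtsZ filament patterns imaged by time-lapse TIRF microscopy, one frame per 2 s, with ATP and GTP, Pearson correlation of first frame versus later frames, monoexponential fit, slower decay means persistent structures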;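 for PCC FtsA/FtsZ, mean of experiment (head 'Fig.1e PCC'; n and values fit Fig. 1f PCCdiff): pearson correlation of FtsA and FtsZ channels in dual-colour TIRF movies after subtracting consecutive frames to isolate growing filament ends, one frame per 2 s, ATP and GTP present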
Description: For this aim, we prepared differential time lapse movies[24], where we subtract the intensities of consecutive frames to selectively visualize the growing ends of filament bundles (Fig. 1d). We then calculated the Pearson correlation coefficient between the two channels of the differential movies (PCCdiff), which quantifies the covariation of the fluorescence signals for FtsA and FtsZ at the growing end of a filament bundle with a time resolution of the acquisition rate[4],[23],[24].
Treadmilling dynamics, were quantified using an automated image analysis protocol previously developed by our group[24]. To visualize colocalization of the co-treadmilling FtsZ & FtsA filaments, we used dual-colour videos obtained at an acquisition rate of one frame per 2 s. The two channels were aligned using FIJI’s 3TP align plugin. Both channels were then subjected to the image subtraction protocol and colocalization was measured as described above.

[5] = test system: FtsZ; conditions: 1.25 µM FtsZ, FtsA 0.1–0.8 µM;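 for FtsZ autocorrelation: FtsZ filament patterns imaged by time-lapse TIRF microscopy, one frame per 2 s, with ATP and GTP, Pearson correlation of first frame versus later frames, monoexponential fit, slower decay means persistent structures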;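 for PCC FtsA/FtsZ, mean of experiment (head 'Fig.1e PCC'; n and values fit Fig. 1f PCCdiff): pearson correlation of FtsA and FtsZ channels in dual-colour TIRF movies after subtracting consecutive frames to isolate growing filament ends, one frame per 2 s, ATP and GTP present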
Description: Additionally, the reaction chamber contained 4 mM ATP and 4 mM GTP, as well as a scavenging system to minimize photobleaching effects: 30 mM d-glucose, 0.050 mg ml^−1 Glucose Oxidase, 0.016 mg ml^−1 Catalase, 1 mM DTT and 1 mM Trolox. Prior addition of all components a corresponding buffer volume was removed from the chamber to obtain a total reaction volume of 100 µl. The dynamic protein pattern was monitored by time-lapse TIRF microscopy at one frame per 2 s and 50 ms exposure time.
Treadmilling dynamics, were quantified using an automated image analysis protocol previously developed by our group. To visualize colocalization of the co-treadmilling FtsZ & FtsA filaments, we used dual-colour videos obtained at an acquisition rate of one frame per 2 s. The two channels were aligned using FIJI’s 3TP align plugin. Both channels were then subjected to the image subtraction protocol and colocalization was measured as described above.

Substance: FtsA WT: wild-type E. coli actin-homologue FtsA, membrane anchor of FtsZ
- FtsZ autocorrelation ([1]; 0.1 µM FtsA, Exp. 1): 103.16 s
- FtsZ autocorrelation ([1]; 0.1µM FtsA, Exp. 2): 95.06 s
- FtsZ autocorrelation T ([1]; 0.10 µM FtsA): 86.22 s
- FtsZ autocorrelation ([1]; 0.2 µM FtsA, Exp. 1): 137.57 s
- FtsZ autocorrelation ([1]; 0.2µM FtsA, Exp. 2): 43.74 s
- FtsZ autocorrelation T ([1]; 0.20 µM FtsA): 87.69 s
- FtsZ autocorrelation ([1]; 0.4 µM FtsA, Exp. 1): 70.56 s
- FtsZ autocorrelation ([1]; 0.4µM FtsA, Exp. 2): 64.54 s
- FtsZ autocorrelation T ([1]; 0.40 µM FtsA): 64.93 s
- FtsZ autocorrelation ([1]; 0.8 µM FtsA, Exp. 1): 56.36 s
- FtsZ autocorrelation ([1]; 0.8µM FtsA, Exp. 2): 98.59 s
- Autocorrelation Decay Tau ([1]; replicate 1): 3.11 min
- Autocorrelation Decay Tau ([1]; replicate 2): 2.08 min
- Autocorrelation Decay Tau ([1]; replicate 3): 2.02 min
- Mean of QCM-D experiments ([2]; 0.01 µM): 1.23
- Mean of QCM-D experiments ([2]; 0.05 µM): 3.38
- Mean of QCM-D experiments ([2]; 0.10 µM): 7.01
- amount of membrane-bound protein saturated at ([2]; QCM-D): 0.8 µM
- Kd ([2]; QCM-D, Hill fit, 5th harmonic, DOPC:DOPG 67:33 mol%, pH 7.4, 150 mM KCl, 5 mM MgCl2, 2 mM ATP, 2 mM GTP, 25 °C, n = 2, upper estimate): 210 ± 10 nM
- Recruitment rate of FtsN to FtsZ filaments ([3]; Concentration 0.10 µM): 2.60
- Recruitment rate of FtsN to FtsZ filaments ([3]; Concentration 0.20 µM): 1.05
- Recruitment rate of FtsN to FtsZ filaments ([3]; Concentration 0.40 µM): 0.99
- Recruitment rate of FtsN to FtsZ filaments ([3]; Concentration 0.80 µM): 0.85
- PCC FtsA/FtsZ, mean of experiment (head 'Fig.1e_PCC'; n and values fit Fig. 1f PCCdiff) ([4]; 0.1µM FtsAs, replicate column 1): 0.69
- PCC FtsA/FtsZ, mean of experiment (head 'Fig.1e_PCC'; n and values fit Fig. 1f PCCdiff) ([4]; 0.1µM FtsAs, replicate column 2): 0.76
- PCC FtsA/FtsZ, mean of experiment (head 'Fig.1e_PCC'; n and values fit Fig. 1f PCCdiff) ([4]; 0.1µM FtsAs, replicate column 3): 0.71
- PCC FtsA/FtsZ, mean of experiment (head 'Fig.1e_PCC'; n and values fit Fig. 1f PCCdiff) ([4]; 0.1µM FtsAs, replicate column 4): 0.71
- PCC FtsA/FtsZ, mean of experiment (head 'Fig.1e_PCC'; n and values fit Fig. 1f PCCdiff) ([4]; 0.1µM FtsAs, replicate column 5): 0.86
- PCC FtsA/FtsZ, mean of experiment (head 'Fig.1e_PCC'; n and values fit Fig. 1f PCCdiff) ([4]; 0.1µM FtsAs, replicate column 6): 0.67
- PCC FtsA/FtsZ, mean of experiment (head 'Fig.1e_PCC'; n and values fit Fig. 1f PCCdiff) ([4]; 0.2µM FtsAs, replicate column 1): 0.62
- PCC FtsA/FtsZ, mean of experiment (head 'Fig.1e_PCC'; n and values fit Fig. 1f PCCdiff) ([4]; 0.2µM FtsAs, replicate column 2): 0.58
- PCC FtsA/FtsZ, mean of experiment (head 'Fig.1e_PCC'; n and values fit Fig. 1f PCCdiff) ([4]; 0.2µM FtsAs, replicate column 3): 0.67
- PCC FtsA/FtsZ, mean of experiment (head 'Fig.1e_PCC'; n and values fit Fig. 1f PCCdiff) ([4]; 0.2µM FtsAs, replicate column 4): 0.71
- PCC FtsA/FtsZ, mean of experiment (head 'Fig.1e_PCC'; n and values fit Fig. 1f PCCdiff) ([4]; 0.2µM FtsAs, replicate column 5): 0.74
- PCC FtsA/FtsZ, mean of experiment (head 'Fig.1e_PCC'; n and values fit Fig. 1f PCCdiff) ([4]; 0.2µM FtsAs, replicate column 6): 0.57
- PCCdiff FtsA/FtsZ ([4]; 0.4 µM FtsA, 1.25 µM FtsZ, mean ± s.d., p-value 1.82 × 10^−4): 0.18 ± 0.04
- PCC FtsA/FtsZ, mean of experiment (head 'Fig.1e_PCC'; n and values fit Fig. 1f PCCdiff) ([4]; 0.4µM FtsAs, replicate column 1): 0.18
- PCC FtsA/FtsZ, mean of experiment (head 'Fig.1e_PCC'; n and values fit Fig. 1f PCCdiff) ([4]; 0.4µM FtsAs, replicate column 2): 0.12
- PCC FtsA/FtsZ, mean of experiment (head 'Fig.1e_PCC'; n and values fit Fig. 1f PCCdiff) ([4]; 0.4µM FtsAs, replicate column 3): 0.23
- PCC FtsA/FtsZ, mean of experiment (head 'Fig.1e_PCC'; n and values fit Fig. 1f PCCdiff) ([4]; 0.8µM FtsAs, replicate column 1): 0.10
- PCC FtsA/FtsZ, mean of experiment (head 'Fig.1e_PCC'; n and values fit Fig. 1f PCCdiff) ([4]; 0.8µM FtsAs, replicate column 2): 0.12
- PCC FtsA/FtsZ, mean of experiment (head 'Fig.1e_PCC'; n and values fit Fig. 1f PCCdiff) ([4]; 0.8µM FtsAs, replicate column 3): 0.05
- effect on FtsZ treadmilling velocity [5]: could not observe a significant effect
